The NIST ThermoML archive (doi:10.1016/j.jct.2016.10.022)
Numbers after ± are expanded uncertainties.

Columns and labels:
[1] = Crystal; DTA
[2] = Molar enthalpy of transition or fusion; settings: Crystal; DSC

CC[C@H](C)[C@H]1O[C@]2(C=C[C@@H]1C)C[C@@H]1C[C@@H](C/C=C(\C)[C@@H](O[C@H]3C[C@H](OC)[C@@H](O[C@H]4C[C@H](OC)[C@@H](O)[C@H](C)O4)[C@H](C)O3)[C@@H](C)/C=C/C=C3\CO[C@@H]4[C@H](O)C(C)=C[C@@H](C(=O)O1)[C@]34O)O2 [Avermectin B1a]
Normal melting temperature [1]: 163.29 ± 0.61 °C | Molar enthalpy of transition or fusion [2]: 6.91 ± 0.153 kcal/mol
